# Test results published in patent publication US8192962B2, “Processes for detecting toxic substances” (Daikin Industries, Ltd., priority 2001, dated 2012).
# Test system: Unknown protein yeast genes
# Test: DNA chip mRNA expression in yeast, unknown protein yeast genes (Table 1)
# Type: cell-based, Saccharomyces cerevisiae S288C
# Summary of the method: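 First, S288C yeast grown in YPD at 25° C. are dosed in log phase with one toxicant (growth-inhibiting, not lethal) for 2 h. Next, total RNA is extracted and poly(A) mRNA isolated and reverse-transcribed with Cy3/Cy5-dUTP. Finally, whole-genome chip fluorescence is read relative to unexposed cells.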
compound,measurement,setting,value
"CCCCCCCCCCCCc1ccc(S(=O)(=O)[O-])cc1.[Na+] [(17), sodium dodecylbenzosulfonate]",The level of expressed mRNA in the presence of chemical substance/The level of expressed mRNA in the absence of chemical substance,"yeast gene YAL053W, incubated two hours with chemical substance",1.2
same,The level of expressed mRNA in the presence of chemical substance/The level of expressed mRNA in the absence of chemical substance,yeast gene YBL048W,1.3
same,The level of expressed mRNA in the presence of chemical substance/The level of expressed mRNA in the absence of chemical substance,yeast gene YBL107C,0.9
same,The level of expressed mRNA in the presence of chemical substance/The level of expressed mRNA in the absence of chemical substance,"yeast gene YDL072C, incubated two hours with chemical substance",1.6
same,The level of expressed mRNA in the presence of chemical substance/The level of expressed mRNA in the absence of chemical substance,"yeast gene YDL204W, incubated two hours with chemical substance",1.8
same,The level of expressed mRNA in the presence of chemical substance/The level of expressed mRNA in the absence of chemical substance,"yeast gene YDL222C, incubated two hours with chemical substance",0.9
same,The level of expressed mRNA in the presence of chemical substance/The level of expressed mRNA in the absence of chemical substance,"yeast gene YDR330W, incubated two hours with chemical substance",1.5
same,The level of expressed mRNA in the presence of chemical substance/The level of expressed mRNA in the absence of chemical substance,"yeast gene YDR411C, incubated two hours with chemical substance",1.5
same,The level of expressed mRNA in the presence of chemical substance/The level of expressed mRNA in the absence of chemical substance,"yeast gene YDR511W, incubated two hours with chemical substance",1.3
same,The level of expressed mRNA in the presence of chemical substance/The level of expressed mRNA in the absence of chemical substance,"yeast gene YDR545W, incubated two hours with chemical substance",0.9
same,The level of expressed mRNA in the presence of chemical substance/The level of expressed mRNA in the absence of chemical substance,"yeast gene YEL001C, incubated two hours with chemical substance",0.7
same,The level of expressed mRNA in the presence of chemical substance/The level of expressed mRNA in the absence of chemical substance,"yeast gene YER004W, incubated two hours with chemical substance",1.4
same,The level of expressed mRNA in the presence of chemical substance/The level of expressed mRNA in the absence of chemical substance,"yeast gene YER035W, incubated two hours with chemical substance",2.2
same,The level of expressed mRNA in the presence of chemical substance/The level of expressed mRNA in the absence of chemical substance,"yeast gene YER079W, incubated two hours with chemical substance",1.0
same,The level of expressed mRNA in the presence of chemical substance/The level of expressed mRNA in the absence of chemical substance,"yeast gene YER106W, incubated two hours with chemical substance",0.8
same,The level of expressed mRNA in the presence of chemical substance/The level of expressed mRNA in the absence of chemical substance,"yeast gene YER158C, incubated two hours with chemical substance",1.6
same,The level of expressed mRNA in the presence of chemical substance/The level of expressed mRNA in the absence of chemical substance,"yeast gene YER163C, incubated two hours with chemical substance",1.2
same,The level of expressed mRNA in the presence of chemical substance/The level of expressed mRNA in the absence of chemical substance,"yeast gene YER175C, incubated two hours with chemical substance",0.9
same,The level of expressed mRNA in the presence of chemical substance/The level of expressed mRNA in the absence of chemical substance,"yeast gene YFL006W, incubated two hours with chemical substance",1.0
same,The level of expressed mRNA in the presence of chemical substance/The level of expressed mRNA in the absence of chemical substance,"yeast gene YFL010C, incubated two hours with chemical substance",1.9
same,The level of expressed mRNA in the presence of chemical substance/The level of expressed mRNA in the absence of chemical substance,yeast gene YFL024C,0.9
same,The level of expressed mRNA in the presence of chemical substance/The level of expressed mRNA in the absence of chemical substance,"yeast gene YFL032W, incubated two hours with chemical substance",1.7
same,The level of expressed mRNA in the presence of chemical substance/The level of expressed mRNA in the absence of chemical substance,"yeast gene YGL037C, incubated two hours with chemical substance",1.3
same,The level of expressed mRNA in the presence of chemical substance/The level of expressed mRNA in the absence of chemical substance,"yeast gene YGL047W, incubated two hours with chemical substance",1.1
same,The level of expressed mRNA in the presence of chemical substance/The level of expressed mRNA in the absence of chemical substance,"yeast gene YGL053W, incubated two hours with chemical substance",2.2
same,The level of expressed mRNA in the presence of chemical substance/The level of expressed mRNA in the absence of chemical substance,yeast gene YGL121C,2.7
same,The level of expressed mRNA in the presence of chemical substance/The level of expressed mRNA in the absence of chemical substance,"yeast gene YGL199C, incubated two hours with chemical substance",1.2
same,The level of expressed mRNA in the presence of chemical substance/The level of expressed mRNA in the absence of chemical substance,"yeast gene YGR101W, incubated two hours with chemical substance",1.0
same,The level of expressed mRNA in the presence of chemical substance/The level of expressed mRNA in the absence of chemical substance,yeast gene YGR110W,0.9
same,The level of expressed mRNA in the presence of chemical substance/The level of expressed mRNA in the absence of chemical substance,"yeast gene YGR130C, incubated two hours with chemical substance",1.3
same,The level of expressed mRNA in the presence of chemical substance/The level of expressed mRNA in the absence of chemical substance,"yeast gene YGR154C, incubated two hours with chemical substance",1.0
same,The level of expressed mRNA in the presence of chemical substance/The level of expressed mRNA in the absence of chemical substance,"yeast gene YGR221C, incubated two hours with chemical substance",1.3
same,The level of expressed mRNA in the presence of chemical substance/The level of expressed mRNA in the absence of chemical substance,"yeast gene YHR138C, incubated two hours with chemical substance",5.0
same,The level of expressed mRNA in the presence of chemical substance/The level of expressed mRNA in the absence of chemical substance,"yeast gene YHR199C, incubated two hours with chemical substance",1.1
same,The level of expressed mRNA in the presence of chemical substance/The level of expressed mRNA in the absence of chemical substance,"yeast gene YIL023C, incubated two hours with chemical substance",1.2
same,The level of expressed mRNA in the presence of chemical substance/The level of expressed mRNA in the absence of chemical substance,"yeast gene YIL041W, incubated two hours with chemical substance",0.8
same,The level of expressed mRNA in the presence of chemical substance/The level of expressed mRNA in the absence of chemical substance,"yeast gene YIL087C, incubated two hours with chemical substance",1.7
same,The level of expressed mRNA in the presence of chemical substance/The level of expressed mRNA in the absence of chemical substance,"yeast gene YJL057C, incubated two hours with chemical substance",1.4
same,The level of expressed mRNA in the presence of chemical substance/The level of expressed mRNA in the absence of chemical substance,"yeast gene YJL066C, incubated two hours with chemical substance",1.4
same,The level of expressed mRNA in the presence of chemical substance/The level of expressed mRNA in the absence of chemical substance,"yeast gene YJL082W, incubated two hours with chemical substance",0.6
same,The level of expressed mRNA in the presence of chemical substance/The level of expressed mRNA in the absence of chemical substance,"yeast gene YJL151C, incubated two hours with chemical substance",3.5
same,The level of expressed mRNA in the presence of chemical substance/The level of expressed mRNA in the absence of chemical substance,"yeast gene YJL152W, incubated two hours with chemical substance",2.5
same,The level of expressed mRNA in the presence of chemical substance/The level of expressed mRNA in the absence of chemical substance,"yeast gene YJL161W, incubated two hours with chemical substance",1.9
same,The level of expressed mRNA in the presence of chemical substance/The level of expressed mRNA in the absence of chemical substance,"yeast gene YJL171C, incubated two hours with chemical substance",3.6
same,The level of expressed mRNA in the presence of chemical substance/The level of expressed mRNA in the absence of chemical substance,"yeast gene YJR008W, incubated two hours with chemical substance",1.5
same,The level of expressed mRNA in the presence of chemical substance/The level of expressed mRNA in the absence of chemical substance,"yeast gene YJR054W, incubated two hours with chemical substance",0.9
same,The level of expressed mRNA in the presence of chemical substance/The level of expressed mRNA in the absence of chemical substance,yeast gene YKL071W,1.0
same,The level of expressed mRNA in the presence of chemical substance/The level of expressed mRNA in the absence of chemical substance,"yeast gene YKL086W, incubated two hours with chemical substance",0.9
same,The level of expressed mRNA in the presence of chemical substance/The level of expressed mRNA in the absence of chemical substance,"yeast gene YKL151C, incubated two hours with chemical substance",1.4
same,The level of expressed mRNA in the presence of chemical substance/The level of expressed mRNA in the absence of chemical substance,"yeast gene YKL153W, incubated two hours with chemical substance",0.9
